# Results from patent US5624897A, “Cyclic depsipeptides having 18 ring atoms, and their use for combating endoparasites” (Bayer Aktiengesellschaft, priority 1993, dated 1997).
# Key:
# [1] = system: Trichostrongylus colubriformis; assay: In vivo nematode test Trichostrongylus colubriformis/sheep; conditions: experimentally infected sheep, treated after prepatent period; pure active compound orally and/or intravenously; dose at which nematode egg excretion with the faeces stops completely
# Description: Trichostrongylus colubriformis/Sheep
# Sheep which have been infected experimentally with Trichostrongylus colubriformis were treated after the prepatent period had elapsed. The active compounds in the form of the pure active compound were administered orally and/or intravenously.
# (§1) The degree of effectiveness is determined by quantitative determination of the nematode eggs excreted with the faeces before and after the treatment.
# (§2) If, after the treatment, egg excretion stops completely, the nematodes were aborted or damaged to such an extent that they no longer produce eggs (dosis effectiva).
# [2] = system: Haemonchus contortus; assay: In vivo nematode test Haemonchus contortus/sheep; conditions: experimentally infected sheep, treated after prepatent period; pure active compound orally and/or intravenously; dose at which nematode egg excretion with the faeces stops completely
# Description: Haemonchus contortus/Sheep
# Sheep which have been infected experimentally with Haemonchus contortus were treated after the prepatent period had elapsed. The active compounds in the form of the pure active compound were administered orally and/or intravenously.
# as §1, §2
smiles,measurement,setting,value
"CC[C@H](C)[C@H]1C(=O)O[C@H](C)C(=O)N(C)[C@@H](C)C(=O)O[C@H](C)C(=O)N(C)[C@@H]([C@@H](C)CC)C(=O)O[C@H](C)C(=O)N1C [Example 1, Cyclo(-N-methyl-L-alanyl-D-lactyl-N-methyl-L-isoleucyl-D-lactyl-N-methyl-L- isoleucyl-D-lactyl-)]",Dosis effectiva,[1],10 mg/kg
same,Dosis effectiva,[2],10 mg/kg
